According to PubChem BioAssay (NCI):
Where “and” joins values, the source holds several entries; their conditions need not be identical. Equal values may be shown once.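 Cells were grown in 96-well plates and exposed to each compound for 48 hours at five concentrations; endpoints were interpolated linearly between bracketing concentrations, or set to the highest concentration if not reached. GI50 is the concentration that inhibits growth by half. Definition used: TGI = concentration required for complete inhibition of growth.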

How the values were obtained:
Test in all cases: growth of human tumour cells (NCI), 48 h
BT-549 breast = system: BT-549 breast
HCT-15 colon = system: HCT-15 colon
HL-60(TB) leukemia = system: HL-60(TB) leukemia
HOP-92 NSCLC = system: HOP-92 NSCLC
MDA-MB-435 = system: MDA-MB-435
MOLT-4 leukemia = system: MOLT-4 leukemia
OVCAR-4 ovarian = system: OVCAR-4 ovarian
SF-268 CNS = system: SF-268 CNS
SW-620 colon = system: SW-620 colon
U251 CNS = system: U251 CNS

Structure (SMILES)	GI50 (BT-549 breast)	TGI (BT-549 breast)	GI50 (HCT-15 colon)	TGI (HCT-15 colon)	GI50 (HL-60(TB) leukemia)	TGI (HL-60(TB) leukemia)	GI50 (HOP-92 NSCLC)	TGI (HOP-92 NSCLC)	GI50 (MDA-MB-435)	TGI (MDA-MB-435)	GI50 (MOLT-4 leukemia)	TGI (MOLT-4 leukemia)	GI50 (OVCAR-4 ovarian)	TGI (OVCAR-4 ovarian)	GI50 (SF-268 CNS)	TGI (SF-268 CNS)	GI50 (SW-620 colon)	TGI (SW-620 colon)	GI50 (U251 CNS)	TGI (U251 CNS)
O=C(NCCNCCO)c1ccc2c(c1)oc1cc3ccccc3c(=O)n12	18.8 µM	> 50 µM	38.4 µM	> 50 µM	25.6 µM	> 50 µM	37.6 µM	> 50 µM	> 50 µM	> 50 µM	44.3 µM	> 50 µM	> 50 µM	> 50 µM	19.6 µM	> 50 µM	18.1 µM	> 50 µM	14.7 µM	42.6 µM
Cc1nn(-c2ccc(Cl)cc2)c2ncnc(N/N=C/c3ccccc3O)c12	1.31 µM and 0.57 µM	57.9 µM and > 100 µM	0.407 µM and 0.331 µM	> 100 µM	0.335 µM and 0.305 µM	40.7 µM	1.11 µM and 0.714 µM	34.6 µM and 16.3 µM	1.1 µM and 0.571 µM	> 100 µM	0.518 µM and 0.326 µM	> 100 µM	0.436 µM and 0.237 µM	50.9 µM and 14.2 µM	0.401 µM and 0.312 µM	15.9 µM and > 37.3 µM	1.35 µM and 0.505 µM	> 100 µM	0.508 µM and 0.37 µM	16.8 µM and 16.2 µM
CC(=O)ON1CCCC(P(=O)(OCOC(=O)C(C)(C)C)OCOC(=O)C(C)(C)C)C1=O (stereo not given)	0.559 µM	5.1 µM	0.534 µM	6.71 µM	0.653 µM	2.87 µM	0.187 µM	1.82 µM	2.02 µM	15 µM	0.511 µM	3.65 µM	1.19 µM	13.5 µM	0.746 µM	6.25 µM	1.26 µM	20.8 µM	0.458 µM	5.58 µM
CC(C)(CO)CNC(=O)c1ccc2[nH]c(O)c(N=Nc3ccc(S(N)(=O)=O)cc3)c2c1	> 25 µM	> 25 µM	> 25 µM	> 25 µM	> 25 µM	> 25 µM	> 25 µM	> 25 µM	> 25 µM	> 25 µM	> 25 µM	> 25 µM	> 25 µM	> 25 µM	> 25 µM	> 25 µM	> 25 µM	> 25 µM	> 25 µM	> 25 µM
O=C(/C=C/C12c3ccccc3C(c3ccccc31)C1C(=O)NC(=O)C12)c1ccccn1 (stereo not given)	1.82 µM	3.69 µM	1.17 µM	3.35 µM	1.02 µM	3.41 µM	1.98 µM	4.54 µM	1.77 µM	5.15 µM	2.11 µM	9.55 µM	2.69 µM	11.7 µM	1.61 µM	4.35 µM	1.69 µM	5.03 µM	1.4 µM	2.74 µM
COc1ccc(OC)c(NCC(=O)n2nc(/C=C\c3ccc(O)c(OC)c3)cc2/C=C\c2ccc(O)c(OC)c2)c1	1.44 µM	5.7 µM	2.09 µM	11.8 µM	0.989 µM	5.05 µM	4.76 µM	53.8 µM	1.5 µM	9.6 µM	1.11 µM	9.21 µM	3.43 µM	22.7 µM	2.37 µM	> 100 µM	2.03 µM	5.48 µM	2.36 µM	12 µM
N#CC1c2ccccc2C=CN1C(=O)CCCl (stereo not given)	16.9 µM	30.7 µM	2.87 µM	9.55 µM	9.09 µM	40.8 µM	1.53 µM	3.76 µM	12.4 µM	27.1 µM	7.88 µM	51.2 µM	2.79 µM	10.7 µM	15.2 µM	30.9 µM	2.36 µM	6.53 µM	17.6 µM	32 µM
COc1ccc2c(N)ncc(C#Cc3cc(C(=O)Nc4ccc(CN5CCN(C)CC5)c(C(F)(F)F)c4)cnc3C)c2c1	6.02 µM	14.9 µM	0.386 µM	0.956 µM	1.63 µM	11.1 µM	0.88 µM	3.87 µM	0.647 µM	3.1 µM	0.396 µM	1.67 µM	1.13 µM	10.9 µM	1.21 µM	4.78 µM	0.578 µM	1.3 µM	0.581 µM	1.15 µM
COc1cc2c(N3CCN(C(=O)Nc4ccc(OC(C)C)cc4)CC3)ncnc2cc1OCCCN1CCCCC1	13.4 µM	29.3 µM	16.7 µM	36.1 µM	15.1 µM	36.1 µM	6.24 µM	33.1 µM	13.8 µM	29.9 µM	12.8 µM	61.2 µM	14.4 µM	53.9 µM	16.2 µM	38.6 µM	14.6 µM	38.8 µM	14 µM	41.8 µM
N#Cc1nc2c(S(=O)(=O)c3ccc(Cl)cc3)c(N)n(Nc3cccc(Cl)c3)c2nc1C#N	0.131 µM	–	0.0982 µM	> 100 µM	0.0052 µM	0.0871 µM	–	0.099 µM	0.0497 µM	0.379 µM and 0.067 µM	0.0162 µM	0.103 µM	0.0166 µM	–	–	> 100 µM	0.014 µM	0.0733 µM	0.0294 µM	–
c1ccc(-c2[nH]ncc2-c2ccnc(-c3ccc(OCCn4ccnc4)cc3)c2)nc1	22.5 µM	> 25 µM	22 µM	> 25 µM	> 25 µM	> 25 µM	> 25 µM	> 25 µM	24.5 µM	> 25 µM	10 µM	> 25 µM	16.1 µM	> 25 µM	> 25 µM	> 25 µM	> 25 µM	> 25 µM	> 25 µM	> 25 µM
CC1=C(C(=O)Nc2ccccc2)C(c2ccc(N(C)C)cc2)C(C(=O)Nc2ccccc2)=C(C)N1	–	> 88.3 µM	–	15.3 µM	–	49.4 µM	–	> 94.6 µM	–	> 26.7 µM	–	> 96.6 µM	–	> 100 µM	–	> 71.6 µM	–	> 83 µM	–	> 72.4 µM
